Source: patent US20220331247A1, “Polymeric micelle, methods of production and uses thereof” (Association for the Advancement of Tissue Engineering and …, priority 2019, published 2022)

What was measured:
[1] = test system: hACs cultured in monolayer; experiment: Biological effects of Dex treatments in hACs monoculture; format: cell-based, human; conditions: Dex 100 WI
Protocol: (§1) In an embodiment, the biological effects of dexamethasone (Dex) in monocultures and co-culture of hACs and THP-1 were analysed. To compare the biological effects of free Dex and the polymeric micelles encapsulating Dex, monoculture and co-culture systems of hACs and stimulated M1 macrophages were used. Three different conditions were tested: (i) no treatment (Ctr), (ii) treatment with micelles encapsulating Dex (Mic+Dex), and (iii) treatment with free Dex (Dex). The concentration of Dex was […], and in the co-culture system, 50 mU of GR was added.
(§2) The samples were analyzed for (i) cell viability, (ii) cell proliferation, (C) TNF-α concentration, and (D) IL-6 concentration. The alphabet “a” denotes significant difference compared to the hACs Ctr, “b” denotes significant difference compared to the THP-1 Ctr, and “c” denotes significant difference as compared to the co-culture Ctr where p<0.01.

IL-6 = IL-6 quantified in the medium, co-culture system; format: cell-based, human; conditions: untreated maximum about 1.2 μg/mL
Protocol: as §1
TNF-α and IL-6 cytokines (FIGS. 5C and D, respectively) were quantified in the medium. […] This may be explained due to the controlled release of Dex from the polymeric micelles over the time. With regard to IL-6, the establishment of the co-culture system increased IL-6 amount to a maximum of about 1.2 μg/mL. In this case, both the polymeric micelles with encapsulated Dex and free Dex were able to effectively reduce the amount of IL-6 in the medium to about 0.1 μg/mL.
as §2

With `C[C@@H]1C[C@H]2[C@@H]3CCC4=CC(=O)C=C[C@]4(C)[C@@]3(F)[C@@H](O)C[C@]2(C)[C@@]1(O)C(=O)CO` [Dex, dexamethasone] the “hACs' viability and proliferation vs Ctr” value [1] was “significantly reduced” and the “amount of IL-6 in the medium after treatment” value (IL-6) was “about 0.1 μg/mL”.
